Reference: ChEMBL document CHEMBL4138296, “Nonacidic Chemotype Possessing N-Acylated Piperidine Moiety as Potent Farnesoid X Receptor (FXR) Antagonists” (ACS Med Chem Lett, 2018)
Activity calls are given as the source filed them. No cut-off for these calls is given here.

Legend:
[1] = system: 3T3-L1; assay: Antiadipogenic activity in mouse 3T3L1 cells assessed as reduction in intracellular lipid droplets after 6 days by Oil Red O staining based assay; assay type: functional, cell-based
[2] = target: T1, Vitamin D3 receptor (Homo sapiens) (UniProt P11473); assay: Agonist activity at human VDR expressed in HEK293T cells at 1 uM by luciferase reporter gene assay; assay type: cell-based
T1 sequence (whole entry): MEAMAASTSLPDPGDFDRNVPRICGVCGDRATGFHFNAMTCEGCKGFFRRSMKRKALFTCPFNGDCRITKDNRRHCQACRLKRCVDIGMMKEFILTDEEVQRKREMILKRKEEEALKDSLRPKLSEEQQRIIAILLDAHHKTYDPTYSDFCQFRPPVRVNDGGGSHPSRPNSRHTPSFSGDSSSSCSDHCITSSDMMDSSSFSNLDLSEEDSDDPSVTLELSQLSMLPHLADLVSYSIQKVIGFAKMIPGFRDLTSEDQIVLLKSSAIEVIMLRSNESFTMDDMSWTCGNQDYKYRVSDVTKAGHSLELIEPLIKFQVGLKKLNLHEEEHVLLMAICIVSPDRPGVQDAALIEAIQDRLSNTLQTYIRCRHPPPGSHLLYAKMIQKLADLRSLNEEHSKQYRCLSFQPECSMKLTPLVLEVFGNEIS

[3] = target: T2, Oxysterols receptor LXR-alpha (Homo sapiens) (UniProt Q13133); assay: Agonist activity at LXRalpha (unknown origin) at 1 uM by luciferase reporter gene assay
T2 sequence (whole entry): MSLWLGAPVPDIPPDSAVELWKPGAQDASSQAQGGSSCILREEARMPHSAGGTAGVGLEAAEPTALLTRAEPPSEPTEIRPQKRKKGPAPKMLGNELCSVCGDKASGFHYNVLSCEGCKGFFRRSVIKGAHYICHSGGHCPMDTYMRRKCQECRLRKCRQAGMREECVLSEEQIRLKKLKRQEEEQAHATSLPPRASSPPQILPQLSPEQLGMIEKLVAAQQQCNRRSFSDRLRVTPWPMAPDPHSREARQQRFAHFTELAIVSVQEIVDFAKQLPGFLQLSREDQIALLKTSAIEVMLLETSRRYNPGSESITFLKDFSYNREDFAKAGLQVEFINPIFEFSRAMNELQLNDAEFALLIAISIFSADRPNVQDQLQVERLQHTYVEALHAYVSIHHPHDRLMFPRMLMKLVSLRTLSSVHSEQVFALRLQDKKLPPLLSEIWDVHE

[4] = target: T3, Oxysterols receptor LXR-beta (Homo sapiens) (UniProt P55055); assay: Agonist activity at LXRbeta (unknown origin) at 1 uM by luciferase reporter gene assay
T3 sequence (whole entry): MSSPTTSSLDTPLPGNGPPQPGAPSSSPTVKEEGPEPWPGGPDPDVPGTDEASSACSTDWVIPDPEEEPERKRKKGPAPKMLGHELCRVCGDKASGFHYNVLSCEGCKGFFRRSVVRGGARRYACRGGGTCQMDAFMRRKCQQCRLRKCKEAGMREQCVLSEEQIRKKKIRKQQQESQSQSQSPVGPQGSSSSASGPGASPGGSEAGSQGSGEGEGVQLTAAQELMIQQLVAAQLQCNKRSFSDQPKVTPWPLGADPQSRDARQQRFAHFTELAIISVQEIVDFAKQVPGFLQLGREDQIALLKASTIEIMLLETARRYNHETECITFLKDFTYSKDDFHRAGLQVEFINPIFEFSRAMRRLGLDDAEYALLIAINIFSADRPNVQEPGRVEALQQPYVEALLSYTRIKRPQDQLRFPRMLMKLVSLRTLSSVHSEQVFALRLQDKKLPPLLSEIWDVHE

[5] = target: T4, Retinoic acid receptor RXR-alpha (Homo sapiens) (UniProt P19793); assay: Agonist activity at human RXRalpha expressed in HEK293T cells at 1 uM by luciferase reporter gene assay; assay type: cell-based
T4 sequence (whole entry): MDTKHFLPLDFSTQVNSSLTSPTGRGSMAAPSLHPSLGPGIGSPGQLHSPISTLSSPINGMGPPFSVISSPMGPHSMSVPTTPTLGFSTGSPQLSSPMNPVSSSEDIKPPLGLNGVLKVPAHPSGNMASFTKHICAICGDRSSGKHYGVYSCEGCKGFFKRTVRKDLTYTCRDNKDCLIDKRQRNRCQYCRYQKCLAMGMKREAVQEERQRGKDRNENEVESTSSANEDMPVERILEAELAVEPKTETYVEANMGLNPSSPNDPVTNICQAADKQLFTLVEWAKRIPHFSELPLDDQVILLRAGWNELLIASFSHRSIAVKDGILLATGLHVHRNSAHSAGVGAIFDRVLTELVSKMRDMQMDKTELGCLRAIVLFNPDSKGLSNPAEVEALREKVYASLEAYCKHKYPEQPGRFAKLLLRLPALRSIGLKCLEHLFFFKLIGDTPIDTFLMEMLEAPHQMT

[6] = target: T5, Retinoic acid receptor alpha (Homo sapiens) (UniProt P10276); assay: Agonist activity at RARalpha (unknown origin) at 1 uM by luciferase reporter gene assay
T5 sequence (whole entry): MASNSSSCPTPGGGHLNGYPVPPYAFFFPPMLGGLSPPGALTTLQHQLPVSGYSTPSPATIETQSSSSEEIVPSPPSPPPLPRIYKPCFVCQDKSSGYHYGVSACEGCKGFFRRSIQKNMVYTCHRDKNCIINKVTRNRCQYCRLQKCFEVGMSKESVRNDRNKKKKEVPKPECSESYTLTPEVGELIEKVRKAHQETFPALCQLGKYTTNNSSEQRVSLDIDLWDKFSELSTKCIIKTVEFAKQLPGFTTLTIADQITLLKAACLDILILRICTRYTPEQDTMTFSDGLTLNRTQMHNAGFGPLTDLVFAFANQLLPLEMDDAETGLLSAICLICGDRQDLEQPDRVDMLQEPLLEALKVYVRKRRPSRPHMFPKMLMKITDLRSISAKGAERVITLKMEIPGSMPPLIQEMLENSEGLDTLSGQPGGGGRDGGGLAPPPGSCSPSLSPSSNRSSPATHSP

[7] = target: T6, G-protein coupled bile acid receptor 1 (Homo sapiens) (UniProt Q8TDU6); assay: Antagonist activity at TGR5 (unknown origin) assessed as inhibition of lithocholic acid-induced response at 1 uM by luciferase reporter gene assay; assay type: functional
T6 sequence (whole entry): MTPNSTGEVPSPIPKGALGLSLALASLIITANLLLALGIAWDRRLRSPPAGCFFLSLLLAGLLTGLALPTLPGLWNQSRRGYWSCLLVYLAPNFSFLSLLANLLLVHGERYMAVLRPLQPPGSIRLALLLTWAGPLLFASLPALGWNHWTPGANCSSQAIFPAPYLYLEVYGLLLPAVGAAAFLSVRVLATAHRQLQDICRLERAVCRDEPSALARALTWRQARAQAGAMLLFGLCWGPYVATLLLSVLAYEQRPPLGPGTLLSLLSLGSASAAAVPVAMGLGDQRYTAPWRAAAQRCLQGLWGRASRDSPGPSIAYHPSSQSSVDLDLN

[8] = target: T6, G-protein coupled bile acid receptor 1 (Homo sapiens); assay: Agonist activity at TGR5 (unknown origin) at 1 uM by luciferase reporter gene assay; assay type: functional

Cc1ccc2nc([C@H](CC3CCN(C(=O)C(C)C)CC3)N3C(=O)CN(c4ccc(Oc5ccccc5)cc4)C3=O)n(C)c2c1
Activity [1]: Dose-dependent effect | Activity [2]: inactive | Activity [3]: inactive | Activity [4]: inactive | Activity [5]: inactive | Activity [6]: inactive | inhibition [7]: inactive | Activity [8]: inactive
